IC50 data for 35 compounds are collected here from patent US8426447B2, “Spiro-tricyclic ring compounds as beta-secretase modulators and methods of use” (Amgen Inc., priority 2008, dated 2013).

pIC50: −log10 of the molar value.

For test [1], the target named is T1, BACE1 (Homo sapiens, UniProt P56817). The test can be described thus: In Vitro Enzymatic BACE FRET (Fluorescence Resonance Energy Transfer) Assay. The format is biochemical. The following applies: read-out: BACE1 FRET assay; for IC50: Table III, IC50's in uM ranges. The method in brief: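 Buffer 0.05 M acetate pH 4.2 with 10% DMSO final and 100 uM genapol; reaction started with 50 nM FRET peptide substrate (fluorophore/quencher flanking BACE cleavage site), incubated one hour. Stopped with Tris buffer raising pH to neutrality, then fluorescence read.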

The target of test [2] is T1, BACE1. The test can be described thus: In Vitro BACE Cell-based Assay (HEK cell assay): Aβ40 in conditioned medium of cells stably expressing Amyloid Precursor Protein, sandwich ELISA. To be noted: read-out: HEK cell assay; for IC50: Table III, IC50's in uM ranges. The gist of the method:
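APP-expressing cells were cultured 24 h in DMEM/10% FBS, then treated 24 h with compounds in 10-point dose response (top 100 μM or 10 μM; 0.1% DMSO final). Secreted Aβ40 was quantified by sandwich ELISA (pAb40 capture, biotinylated 6E10 detection, Europium TRF); IC50 from percent inhibition versus concentration.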

The mark [3] stands for this setting: in vitro BACE FRET enzyme assay, IC50 class symbols.
[4] abbreviates: HEK cell-based assay, Aβ40 in conditioned medium, IC50 class symbols.
Setting [5] is: Table II, Aβ40, 24 h incubation.

T1 sequence (P56817 46-501, species assumed): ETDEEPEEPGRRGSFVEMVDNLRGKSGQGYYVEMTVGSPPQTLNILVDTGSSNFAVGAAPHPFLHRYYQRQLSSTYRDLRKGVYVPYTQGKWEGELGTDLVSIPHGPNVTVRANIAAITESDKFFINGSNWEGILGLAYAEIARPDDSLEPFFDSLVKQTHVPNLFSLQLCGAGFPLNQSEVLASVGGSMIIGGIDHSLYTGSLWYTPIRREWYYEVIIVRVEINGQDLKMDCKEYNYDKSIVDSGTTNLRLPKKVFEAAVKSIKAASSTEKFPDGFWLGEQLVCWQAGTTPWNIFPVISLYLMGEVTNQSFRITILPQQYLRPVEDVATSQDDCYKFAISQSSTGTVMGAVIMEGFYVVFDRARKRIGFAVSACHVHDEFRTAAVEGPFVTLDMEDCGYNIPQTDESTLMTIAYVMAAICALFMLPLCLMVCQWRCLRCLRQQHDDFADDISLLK

As to `NC1=N[C@]2(CO1)c1cc(OCC(O)(C(F)(F)F)C(F)(F)F)ccc1Oc1ccc(-c3cccnc3)cc12` [compound 894], the pIC50 at BACE1 [1] (Table IV, class symbols) is more than 7.00; on BACE1 [2] (Table IV, class symbols) it was 6.00 to 7.00.
Taken in the same sequence, the figures for `NC1=N[C@]2(CO1)c1cc(-c3ccc(OC(F)(F)F)cc3)ccc1Oc1ccc(-c3cncnc3)cc12` [compound 840] were more than 7.00 and 6.00 to 7.00.
Turning to `NC1=N[C@@]2(CO1)c1cc(-c3cc(C4=CCOCC4)ccc3F)ccc1Oc1cnc(C3=CCOCC3)cc12` [compound 423], the pIC50 on BACE1 [1] was more than 7.00; at BACE1 [2] (HEK cells) it was 6.00 to 7.00.
Taken in the same sequence, the figures for `NC1=N[C@@]2(CO1)c1cc(-c3cc(F)ccc3F)ccc1Oc1ncc(N3CCOCC3)cc12` [compound 461] were more than 7.00 and more than 7.00.
Take `CC(C)OCCOc1ccc2c(c1)[C@]1(COC(N)=N1)c1cc(-c3cccnc3)ccc1O2` [compound 181]: the figures for the IC50 at BACE1 [1] and at BACE1 [2] were less than 0.1 µM and 0.1 to 1 µM, respectively.
With `CC(C)(C#N)COc1cnc2c(c1)[C@]1(COC(N)=N1)c1cc(-c3cc(F)ccc3F)ccc1O2` [compound 407], the pIC50 on BACE1 [1] (setting [3]) and on BACE1 [2] (setting [4]) was more than 7.00 each time.
In the case of `CC(C)(C)COc1ccc2c(c1)[C@]1(COC(N)=N1)c1cc(C(=O)O)ccc1O2` [compound 861], the pIC50 was 5.30 to 6.00 on BACE1 [1] (Table IV, class symbols) and less than 5.30 on BACE1 [2] (Table IV, class symbols).
Take `COc1ccc2c(c1)[C@@]1(N=C(N)O[C@H]1C)c1cc(-c3cncnc3)ccc1O2` (single isomer, unassigned) [Example 125b]: the IC50 on BACE1 [1] and at BACE1 [2] was 0.1 to 1 µM each time.
For the compound `CC(C)(C)C#Cc1ccc2c(n1)[C@@]1(COC(N)=N1)c1cc(-c3cncnc3)ccc1O2` [compound 528], the pIC50 at BACE1 [1] and on BACE1 [2] (HEK cells) was more than 7.00 in each case.
`CC(C)(C)COc1ccc2c(c1)[C@]1(COC(N)=N1)c1cc(-c3cnc(Cl)nc3)ccc1O2` [compound 881]: the pIC50 at BACE1 [1] (Table IV, class symbols) was more than 7.00; at BACE1 [2] (Table IV, class symbols), 6.00 to 7.00.
Regarding `NC1=N[C@]2(CO1)c1cc(C3=CCOCC3)ccc1Oc1cc(F)c(-c3cccnc3)cc12` [compound 492], the pIC50 at BACE1 [1] and at BACE1 [2] (HEK cells) was more than 7.00 each time.
On to `CC(C)(C)/C=C/c1ccc2c(c1)[C@]1(COC(N)=N1)c1cc(-c3cncnc3)ccc1O2` [compound 963], for which the pIC50 at BACE1 [1] and on BACE1 [2] was more than 7.00 each time.
For the compound `CC(C)(C)COc1ccc2c(c1)[C@@]1(COC(N)=N1)c1cc(-c3ccnc(F)c3)cnc1O2` [compound 752], the pIC50 at BACE1 [1] and on BACE1 [2] was more than 7.00 throughout.
Turning to `Cn1cc(-c2ccc3c(c2)[C@]2(COC(N)=N2)c2cc(Br)ccc2O3)cn1` [compound 638], the pIC50 is 6.00 to 7.00 at BACE1 [1] (Table IV, class symbols) and 5.30 to 6.00 on BACE1 [2] (Table IV, class symbols).
For the compound `CC(C)(C)CCOc1nccc2c1[C@@]1(COC(N)=N1)c1cc(-c3cncnc3)ccc1O2` [compound 985], the figures for the pIC50 at BACE1 [1] and at BACE1 [2] were 6.00 to 7.00 and less than 5.30, respectively.
Regarding `NC1=N[C@@]2(CO1)c1ccccc1Oc1ccc(-c3cccnc3F)cc12` [compound 641], the pIC50 at BACE1 [1] (Table IV, class symbols) was 6.00 to 7.00; at BACE1 [2] (Table IV, class symbols), 5.30 to 6.00.
On to `Cc1n[nH]cc1-c1ccc2c(c1)[C@@]1(COC(N)=N1)c1cc(OCC(C)(C)C)ccc1O2` [Example 129, (S)-2′-(3-methyl-1H-pyrazol-4-yl)-7′-(neopentyloxy)-5H-spiro[oxazole-4,9′-xanthen]-2-amine 2,2,2-trifluoroacetate], for which the values for the IC50 at BACE1 [1] and at BACE1 [2] were 0.1 to 1 µM and more than 5 µM, respectively.
In the case of `CC(C)(F)COc1cnc2c(c1)[C@]1(COC(N)=N1)c1cc(-c3ccccc3)ccc1O2` [compound 452], the values for the pIC50 on BACE1 [1] and on BACE1 [2] (HEK cells) were more than 7.00 and 6.00 to 7.00, respectively.
Take `CC(C)(C)COc1ccc2c(c1)[C@]1(COC(N)=N1)c1cc(C3=CC4CCC3C4)ccc1O2` (stereo partly shown) [compound 730]: the pIC50 is more than 7.00 on BACE1 [1] and 5.30 to 6.00 at BACE1 [2].
On to `CC(C)(C)C#Cc1cc2c(cn1)Oc1ccc(-c3cccnc3)cc1[C@@]21COC(N)=N1` [compound 845], for which the pIC50 at BACE1 [1] (Table IV, class symbols) was more than 7.00; at BACE1 [2] (Table IV, class symbols) it was more than 7.00.
In the case of `CC(C)(C#N)COc1ccc2c(c1)[C@]1(COC(N)=N1)c1cc(C#CC3CC3)ccc1O2` [compound 178], the figures for the IC50 on BACE1 [1] and on BACE1 [2] were less than 0.1 µM and 0.1 to 1 µM, respectively.
In the case of `NC1=N[C@@]2(CO1)c1cc(-c3cccnc3)ccc1Oc1c(F)cc(OCC3CCOCC3)cc12` [compound 418], the pIC50 at BACE1 [1] (setting [3]) and at BACE1 [2] (setting [4]) was more than 7.00 throughout.
For `COc1ccc2c(c1)[C@@]1(COC(N)=N1)c1cc(C(=O)N3CCCC3)ccc1O2` [Example 127, (R)-(2-amino-2′-methoxy-5H-spiro[oxazole-4,9′-xanthene]-7′-yl)(pyrrolidin-1-yl)methanone], the IC50 on BACE1 [1] is more than 5 µM; at BACE1 [2], 1 to 5 µM.
For the compound `CC(C)(C#N)COc1cnc2c(c1)[C@]1(COC(N)=N1)c1cc(-c3ccccc3F)ccc1O2` [compound 408], the pIC50 at BACE1 [1] (setting [3]) and on BACE1 [2] (setting [4]) was more than 7.00 in each case.
On to `Cc1noc(C)c1-c1ccc2c(c1)[C@]1(COC(N)=N1)c1cc(OCC(C)(C)C)ccc1O2` [compound 189], for which the IC50 at BACE1 [1] is 0.1 to 1 µM; on BACE1 [2], more than 5 µM.
Turning to `COc1ncccc1-c1ccc2c(c1)[C@@]1(COC(N)=N1)c1cc(OCC(C)(C)C)ccc1O2` [Example 77, (4S)-2′-(2,2-dimethylpropoxy)-7′-(2-methoxy-3-pyridinyl)spiro[1,3-oxazole-4,9′-xanthen]-2-amine], the pIC50 on BACE1 [1] (Table II) is more than 7.00; on BACE1 [2] (setting [5]), 5.30 to 6.00.
As for `NC1=N[C@]2(CO1)c1cc(-c3cccnc3)ccc1Oc1ncc(Br)cc12` [compound 174], the IC50 at BACE1 [1] is less than 0.1 µM; on BACE1 [2] it was 0.1 to 1 µM.
With `Cc1ncccc1-c1ccc2c(c1)[C@@]1(COC(N)=N1)c1cc(OCC(C)(C)C)ccc1O2` [Example 79, (4S)-2′-(2,2-dimethylpropoxy)-7′-(2-methyl-3-pyridinyl)spiro[1,3-oxazole-4,9′-xanthen]-2-amine], the pIC50 at BACE1 [1] (Table II) and on BACE1 [2] (setting [5]) was 6.00 to 7.00 each time.
For `Cn1cc(-c2ccc3c(c2)[C@]2(COC(N)=N2)c2cc(-c4cccnc4)ccc2O3)ccc1=O` [compound 611], the pIC50 is more than 7.00 on BACE1 [1] (Table IV, class symbols) and 6.00 to 7.00 on BACE1 [2] (Table IV, class symbols).
As to `CC(C)(C)OC(=O)N1CC=C(c2ccc3c(c2)[C@]2(COC(N)=N2)c2cc(-c4cncnc4)ccc2O3)CC1` [compound 968], the pIC50 was more than 7.00 on BACE1 [1] and 6.00 to 7.00 on BACE1 [2].
Consider `NC1=N[C@@]2(CO1)c1cc(-c3cccnc3F)ccc1Oc1ccc([C@H]3CCCCO3)cc12` [compound 365], for which the pIC50 at BACE1 [1] (setting [3]) and at BACE1 [2] (setting [4]) was more than 7.00 each time.
Turning to `NC1=N[C@@]2(CO1)c1cc(-c3ccc(F)nc3)ccc1Oc1cnc(-c3ccc(F)nc3)cc12` [compound 433], the pIC50 at BACE1 [1] was more than 7.00; at BACE1 [2] (HEK cells), 6.00 to 7.00.
Consider `COc1ccc2c(c1)C1(COC(N)=N1)c1cc(-c3cccnc3Cl)ccc1O2` (stereo not shown) [Example 21, 2′-(2-chloro-3-pyridinyl)-7′-methoxyspiro[1,3-oxazole-4,9′-xanthen]-2-amine trifluoroacetic acid], for which the pIC50 at BACE1 [1] (Table 1) is 5.30 to 6.00; on BACE1 [2] (Table 1, Aβ40, 24 h incubation), less than 5.30.
Turning to `NC1=N[C@@]2(CO1)c1cc(-c3cc(Cl)ccc3F)ccc1Oc1cnc(-c3cccnc3)cc12` [compound 367], the pIC50 at BACE1 [1] (setting [3]) and on BACE1 [2] (setting [4]) was more than 7.00 each time.
With `NC1=N[C@@]2(CO1)c1cc(-c3cc(F)ccc3F)ccc1Oc1ncc(C3=CCOCC3)cc12` [compound 487], the pIC50 at BACE1 [1] and at BACE1 [2] (HEK cells) was more than 7.00 each time.
